Values quoted from earlier work as cited in patent US20140200276A1 (iCeutica, Inc., priority 2009, published 2014).

administered dose excreted in the feces (in vivo): ≤ 3%
excreted in the urine as 6-O-desmethyl naproxen (in vivo): < 1%
naproxen from any dose excreted in the urine (total): Approximately 95%
excreted in the urine as naproxen (unchanged naproxen): < 1%
Structure (SMILES): COc1ccc2cc([C@H](C)C(=O)O)ccc2c1 [naproxen]
